The results in this text go back to patent US20090081192A1, “METHODS OF SCREENING FOR COMPOUNDS HAVING ANTI-INFLAMMATORY ACTIVITY” (FIBREX MEDICAL RESEARCH & DEVELOPMENT GMBH, priority 2007, published 2009).

What all share (type): cell-based, human
In one test the test system is RhoA. Briefly: Thrombin induced RhoA activation pull-down assay in HUVEC. The conditions noted are these: substance alone, thrombin 5 U/ml. An excerpt:
(§1) The useful methods of analysing the activation status of Rac1 and RhoA are based on the principle of the so-called pull down assay. In this format, the GTP-bound active state of the respective protein in a cell lysate is bound to an immobilized binding partner and detected with a monoclonal antibody (MAb) specifically directed against the protein in question. The amount of the GTP-bound active state can subsequently be quantified through suitable detection methods, including but not limited to Western blotting or luminescence detection.
The lysate is added to a suitably immobilized rhotekin-binding domain (RBD) and the signal measured with an appropriate detection method.
HUVEC are grown to confluence under standard conditions. Before induction of Rho activity HUVEC were starved for 4 h by using IMDM (Gibco) without growth factor and serum supplements. After the starvation period 5 U/ml Thrombin (Calbiochem) or 5 U thrombin plus 50 μg/ml of test compound are added to the starvation medium for 1, 5 and 10 min. Active RhoA was isolated using Rho Assay Reagent from Upstate according to manufactures instructions. Isolates were separated on a 15% polyacrylamid gel and blotted on Nitrocellulose-Membrane (Bio-Rad). RhoA was detected by using Anti-Rho (-A, -B, -C), clone55 from Upstate (1:500).

Another test deals with FAK. Briefly: Thrombin induced FAK phosphorylation at autophosphorylation site Tyr397 in HUVEC (immunoprecipitation / western blot). The conditions noted are these: substance alone, compound 50 μg/ml, thrombin 1 U/ml. As to the method: For measuring the inhibition of thrombin meditated FAK phosphorylation in HUVECs, the cells are incubated under suitable conditions with a suitable amount of thrombin with and without the test compound for various periods of time up to 60 min and lysed afterwards lysates were subjected to SDS-PAGE and western blot analysis with site-specific antibodies directed against FAK phosphorylated tyrosine residues.
HUVEC were incubated with FX06 (50 μg/ml), Thrombin (1 U/ml, Sigma Aldrich) and Thrombin/test compound for indicated time points. After washing with ice cold PBS (GIBCO), cells were scrapped in Tris-lysis buffer (plus 1% Triton X (Bio-Rad), NP40 (Sigma Aldrich) and proteinase and phosphatase inhibitory cocktails (Sigma Aldrich)) from culture flasks and lysed for 20 min on ice. Lysates were heavily vortexed every 5 min. After lysis lysates were centrifuged (15.000 rpm/10 min/4° C.) and supernatants were added to 50 μl sepahrose beads (Sigma Aldrich) preincubated with 1 μg total FAK antibody (BD Transduction Laboratories). Beads were agitated on the wheel for 2 h at 4° C., followed by 3 times washing with ice cold PBS, the addition of 2× sample buffer and incubation at 95° C. for 5 min. The sample buffer was then removed from the beads and applied to western blotting.
10% polyacrylamide gels were run for separating precipitated proteins. Gels were blotted onto PVDF (Bio-Rad) membranes using the hoefer semi dry blotting system. Membranes were then washed with TBS/0.5% TWEEN (TBST), blocked with 1% BSA/TBST for 1 h at RT and then incubated with the p397 FAK antibody (0.2 μg/ml; BD Transduction Laboratories) in 1% BSA/TBST over night at 4° C. For detection, a HRP-labeled goat anti-mouse Ab (1:25 000; Bio-Rad) in TBST was used and bound Abs were visualized by chemiluminescence (ECL-system, Amersham Corp., Arlington Heights, Ill.) and recorded on film.
For orientation: In western blotting, separated proteins are transferred to a membrane and probed.

Another test concerns Rac1. In words: Rac1 activation pull-down assay in HUVECs. The settings on record: HUVEC, substance alone, test compound 50 μg/ml.
Source text: as §1
The lysate is added to a suitably immobilized p21-binding domain (PBD) of p21-activated protein kinase (PAK) and the amount of activated Rac1 is quantified with a Rac1-specific MAb.
HUVECs are grown to confluence under standard conditions. Before induction of Rac1 activity HUVECs were starved for 4 h by using IMDM (Gibco) without growth factor and serum supplements. Rac1 activity is induced by adding 50 μg/ml of test compound into starvation medium for 1, 5 and 10 min. Active Rac1 was isolated using Rac1/Cdc42 Assay Reagent from Upstate according to manufactures instructions. Isolates were separated on a 15% polyacrylamid gel and blotted on Nitrocellulose-Membranes (Bio-Rad). Rac1 was detected by using Anti-Rac1 clone23A8, anti-mouse from Upstate (1:250).

Marks after values point to notes of the source that are not given here.

thrombin: the “Active RhoA, relative values compared to unstimulated control” value in the test with RhoA (1 min) is given as 2.5 +/− 0.2*; with RhoA (5 min), 2.5 +/− 0.2*; in the test on RhoA (10 min), 1 +/− 0.2. The figures for the “FAK phosphorylation (p397), relative values compared to unstimulated control” value in the test with FAK (1 min), in the test on FAK (5 min) and with FAK (10 min) were 4.5 +/− 0.2*, 4.5 +/− 0.2* and 3.8 +/− 0.1*, respectively. The “Active Rac1, relative values compared to unstimulated control” value in the test on Rac1 (1 min) is recorded as 0.5 +/− 0.2*; with Rac1 (5 min), 0.5 +/− 0.2*; with Rac1 (10 min) it was 1 +/− 0.1.
